Patent US7226932B2, “Self-emulsifying drug delivery system” (priority 1994, dated 2007)
In brackets after ≈: the same amount, converted by molar mass. Where two headings read alike, the source gives them in different places.

How the values were obtained:
[1] = Solubility in water and oil; type: physicochemical
[2] = Bioavailability measured in animals; type: in vivo
[3] = Oral administration to rats, plasma pharmacokinetics; type: in vivo; conditions: rat, suspension in tween 80, methylcellulose and water
Description: Rats: […] Three rats were administered with each dose vehicle. […] Plasma concentrations of the pharmaceutical were determined as previously described in the dog and the same pharmacokinetic parameters were determined.

HIV protease = HIV protease (Human immunodeficiency virus type 1 group M subtype B, UniProt P04585); assay: IC50 and IC90 pharmaceutical plasma levels

Question: With `CC(C)CN(C[C@@H](O)[C@H](Cc1ccccc1)NC(=O)[C@H](CC(N)=O)NC(=O)c1ccc2ccccc2n1)C(=O)NC(C)(C)C` [Example 1, N^1-[3-[N^2-[[(1,1-dimethylethyl)amino]carbonyl]-N^2-(2-methylpropyl)amino]-2(R)-hydroxy-1(S)-(phenylmethyl)propyl]-2(S)-[N^3-(2-quinolinylcarbonyl)amino]butanediamide] as the compound, how does the “dose to solubility ratio” value [1] read?
Answer: > 75,000

Question: What about the solubility ([1]; oil, oil or lipid, read-out: solubility in oil) of the same compound?
Answer: < 1000 µg/mL

Question: What about the solubility ([1]; water, read-out: solubility in water) of the same compound?
Answer: ~10 µg/mL (≈ 16.5 µM)

Question: What about the bioavailability ([2]; in vivo, normal formulation methods, read-out: bioavailability) of the same compound?
Answer: < 1%

Question: What about the bioavailability ([2]; measured in animals, without solubilizer) of the same compound?
Answer: very low

Question: And the increase of bioavailability ([2]; utilizing a solubilizer in the dosage formulation)?
Answer: 25–30 fold

Question: What about the bioavailability [3] of the same compound?
Answer: ~1%

Question: What about the IC50 (HIV protease) of the same compound?
Answer: 16.5 nM

Question: And the IC90 (HIV protease)?
Answer: 0.1 µg/mL (≈ 0.165 µM)

Question: And the melting point?
Answer: 107 to 109.8 °C
